Measurements published in patent EP0168733A2, “Process for the preparation of quinolinone and naphthyridoncarboxylic acids” (BAYER AG, priority 1984, dated 1986).
In brackets after ≈: the same amount, converted by molar mass.

Columns and labels:
Experiment in all cases: Agar dilution test (Isosensitest medium / Denley multipoint inoculator), MIC
Format in all cases: cell-based
[1] = system: Staphylococcus aur. 133; details: read-out: Minimale Hemmkonzentration
Source text: (§1) In der nachstehenden Tabelle sind die MHK-Werte einiger der erfindungsgemäßen Verbindungen angegeben.

[2] = system: E. coli T 7; details: Escherichia coli, T7, read-out: Minimale Hemmkonzentration
Source text: as §1

[3] = system: Proteus morg. 932; details: read-out: Minimale Hemmkonzentration
Source text: as §1

[4] = system: E. coli Neum.; details: Escherichia coli, read-out: Minimale Hemmkonzentration
Source text: as §1

[5] = system: Klebsiella pneum. 8085; details: read-out: Minimale Hemmkonzentration
Source text: as §1

[6] = system: Proteus vulg. 1017; details: read-out: Minimale Hemmkonzentration
Source text: as §1

[7] = system: Klebsiella pneum. 63; details: read-out: Minimale Hemmkonzentration
Source text: as §1

Compound	MIC [1]	MIC [2]	MIC [3]	MIC [4]	MIC [5]	MIC [6]	MIC [7]
O=C(O)c1cn(C2CC2)c2cc([N+](=O)[O-])c(Cl)cc2c1=O [Beispiel 1, 6-Chlor-1-cyclopropyl-7-nitro-1,4-dihydro-4-oxo-3-chinolincarbonsäure]	> 128 µg/mL	64 µg/mL (≈ 207 µM)	> 128 µg/mL	32 µg/mL (≈ 104 µM)	32 µg/mL (≈ 104 µM)	> 128 µg/mL	> 128 µg/mL
CN(C)n1cc(C(=O)O)c(=O)c2ccccc21 [Beispiel 4, 1-Dimethylamino-1,4-dihydro-4-oxo-3-chinolincarbonsäure]	> 128 µg/mL	64 µg/mL (≈ 276 µM)	128 µg/mL (≈ 551 µM)	32 µg/mL (≈ 138 µM)	64 µg/mL (≈ 276 µM)	128 µg/mL (≈ 551 µM)	> 128 µg/mL
O=C(O)c1cn(C2CC2)c2cccc([N+](=O)[O-])c2c1=O [Beispiel 6, 1-Cyclopropyl-5-nitro-1,4-dihydro-4-oxo-3-chinolincarbonsäure]	> 128 µg/mL	32 µg/mL (≈ 117 µM)	64 µg/mL (≈ 233 µM)	32 µg/mL (≈ 117 µM)	128 µg/mL (≈ 467 µM)	64 µg/mL (≈ 233 µM)	128 µg/mL (≈ 467 µM)
O=C(O)c1cn(C2CC2)c2cc([N+](=O)[O-])ccc2c1=O [Beispiel 7, 1-Cyclopropyl-7-nitro-1,4-dihydro-4-oxo-3-chinolincarbonsäure]	32 µg/mL (≈ 117 µM)		0.25 µg/mL (≈ 0.912 µM)		0.06 µg/mL (≈ 0.219 µM)	0.25 µg/mL (≈ 0.912 µM)	0.5 µg/mL (≈ 1.82 µM)
